Data as given in US9211310B2, “Use of a Chinese medicine composition in preparing medicaments for treating secondary prevention of myocardial infarction” (TASLY PHARMACEUTICAL GROUP CO., LTD, priority 2010, dated 2015).

Tested on: patients after acute myocardial infarction
Test: Life quality, Seattle Angina Questionnaire (SAQ), same clinical trial
Type: in vivo, human
Details: 3 months after treatment
Excerpt: 3508 patients who were in accordance with the diagnostic standards of AMI for 28 days to 2 years and differentiated as Qi deficiency and blood stagnation syndrome by TCM were studied. 0.5 g Chinese medicine composition prepared by the method of EXAMPLE 1 (Coded as QSYQ) was administrated half an hour after meal, 3 times per day.
There were 19 questions in the Seattle angina questionnaire (SAQ), including 5 parts: physical limitation (PL), anginal stability (AS), anginal frequency (AF), treatment satisfaction (TS) and disease perception (DP). After being given necessary explanation by doctors, the questions were answered independently by patients.
They included the overall survival time, angina pectoris score, TCM symptom score and life quality score, where angina pectoris score, TCM symptom score and life quality score were evaluated at randomization, in 1st, 3rd, 6th, 9th, 12th month after treatment and 18th month after follow-up.
All evaluation results of SAQ were described during the period of observation, and Wilcoxon rank sum test was used for inter-group comparison.
The evaluation results in the SAQ were depicted in different observations, and inter-group comparison was tested by Wilcoxon Rank-sum test.

Structure (SMILES): CC(=O)Oc1ccccc1C(=O)O [Control group, aspirine]
- SAQ 3rd question: <1 time per week, % of cases (FAS): (21.15%)
- SAQ 3rd question: <1 time per week, cases (FAS): 368
- SAQ 3rd question: No onset, % of cases (FAS): (0.00%)
- SAQ 3rd question: No onset, cases (FAS): 0
- SAQ 3rd question: ≧3 times per week, % of cases (FAS): (42.13%)
- SAQ 3rd question: ≧3 times per week, cases (FAS): 733
- SAQ 3rd question: ≧4 times per day, % of cases (FAS): (0.92%)
- SAQ 3rd question: ≧4 times per day, cases (FAS): 16
- SAQ Question 1-3: Mildly limited, number of patients (FAS): 93
- SAQ Question 1-3: Mildly limited, percent of patients (FAS): (5.33%)
- SAQ Question 1-3: Moderately limited, number of patients (FAS): 23
- SAQ Question 1-3: Moderately limited, percent of patients (FAS): (1.32%)
- SAQ Question 1-3: Not limited, number of patients (FAS): 1318
- SAQ Question 1-3: Not limited, percent of patients (FAS): (75.57%)
- SAQ Question 1-3: Other reason, number of patients (FAS): 9
- SAQ Question 1-3: Other reason, percent of patients (FAS): (0.52%)
- SAQ Question 1-3: Severely limited, number of patients (FAS): 5
- SAQ Question 1-3: Severely limited, percent of patients (FAS): (0.29%)
- SAQ Question 1-3: Slightly limited, number of patients (FAS): 296
- SAQ Question 1-3: Slightly limited, percent of patients (FAS): (16.97%)
- SAQ Question 1-4: Mildly limited, number of patients (FAS): 325
- SAQ Question 1-4: Mildly limited, percent of patients (FAS): (18.65%)
- SAQ Question 1-4: Moderately limited, number of patients (FAS): 120
- SAQ Question 1-4: Moderately limited, percent of patients (FAS): (6.88%)
- SAQ Question 1-4: Not limited, number of patients (FAS): 668
- SAQ Question 1-4: Not limited, percent of patients (FAS): (38.32%)
- SAQ Question 1-4: Other limited, number of patients (FAS): 12
- SAQ Question 1-4: Other limited, percent of patients (FAS): (0.69%)
- SAQ Question 1-4: Severely limited, number of patients (FAS): 29
- SAQ Question 1-4: Severely limited, percent of patients (FAS): (1.66%)
- SAQ Question 1-4: Slightly limited, number of patients (FAS): 589
- SAQ Question 1-4: Slightly limited, percent of patients (FAS): (33.79%)
- SAQ Question 1-5: Mildly limited, number of patients (FAS): 311
- SAQ Question 1-5: Mildly limited, percent of patients (FAS): (17.84%)
- SAQ Question 1-5: Moderately limited, number of patients (FAS): 162
- SAQ Question 1-5: Moderately limited, percent of patients (FAS): (9.29%)
- SAQ Question 1-5: Not limited, number of patients (FAS): 709
- SAQ Question 1-5: Not limited, percent of patients (FAS): (40.68%)
- SAQ Question 1-5: Other reasons, number of patients (FAS): 12
- SAQ Question 1-5: Other reasons, percent of patients (FAS): (0.69%)
- SAQ Question 1-5: Severely limited, number of patients (FAS): 21
- SAQ Question 1-5: Severely limited, percent of patients (FAS): (1.20%)
- SAQ Question 1-5: Slightly limited, number of patients (FAS): 528
- SAQ Question 1-5: Slightly limited, percent of patients (FAS): (30.29%)
- SAQ Question 1-9: Mildly limited, % of cases (FAS): (18.63%)
- SAQ Question 1-9: Mildly limited, cases (FAS): 318
- SAQ Question 1-9: Moderately limited, % of cases (FAS): (20.04%)
- SAQ Question 1-9: Moderately limited, cases (FAS): 342
- SAQ Question 1-9: Not limited, % of cases (FAS): (3.57%)
- SAQ Question 1-9: Not limited, cases (FAS): 61
- SAQ Question 1-9: Other reaons, % of cases (FAS): (5.98%)
- SAQ Question 1-9: Other reaons, cases (FAS): 102
- SAQ Question 1-9: Severely limited, % of cases (FAS): (38.90%)
- SAQ Question 1-9: Severely limited, cases (FAS): 664
- SAQ Question 1-9: Slightly limited, % of cases (FAS): (12.89%)
- SAQ Question 1-9: Slightly limited, cases (FAS): 220
- SAQ 2nd question: Clearly increased, % of cases (PP): (0.41%)
- SAQ 2nd question: Clearly increased, cases (PP): 6
- SAQ 2nd question: Clearly reduced, % of cases (PP): (22.01%)
- SAQ 2nd question: Clearly reduced, cases (PP): 322
- SAQ 2nd question: Same, % of cases (PP): (41.97%)
- SAQ 2nd question: Same, cases (PP): 614
- SAQ 2nd question: Slightly increased, % of cases (PP): (3.42%)
- SAQ 2nd question: Slightly increased, cases (PP): 50
- SAQ 2nd question: Slightly reduced, % of cases (PP): (32.19%)
- SAQ 2nd question: Slightly reduced, cases (PP): 471
- SAQ 3rd question: 1-2 times per week, % of cases (PP): (32.19%)
- SAQ 3rd question: 1-2 times per week, cases (PP): 471
- SAQ 3rd question: 1-3 times per day, % of cases (PP): (3.42%)
- SAQ 3rd question: 1-3 times per day, cases (PP): 50
- SAQ 3rd question: <1 time per week, % of cases (PP): (22.01%)
- SAQ 3rd question: <1 time per week, cases (PP): 322
- SAQ 3rd question: No onset, % of cases (PP): (0.00%)
- SAQ 3rd question: No onset, cases (PP): 0
- SAQ 3rd question: ≧3 times per week, % of cases (PP): (41.97%)
- SAQ 3rd question: ≧3 times per week, cases (PP): 614
- SAQ 3rd question: ≧4 times per day, % of cases (PP): (0.41%)
